Consider eleven molecules from ChEMBL document CHEMBL1201862, “PubChem BioAssay data set” (2004).

The nature of test [1]: Luminescence Cell-Based Dose Response HTS to Identify Inhibitors of 5'UTR Stem-Loop Driven Prion Protein mRNA Translation in H4 Neuroglioblastoma Cells. [Related pubchem assays: 1827 (Project Summary), 1813 (Primary HTS)]. The test is classed as functional.
Test [2] can be described thus: inhibitors of SNCA 5'UTR-driven reporter translation, confirmation, H4 neuroglioma cells, luminescence (AID 1988). The test is classed as functional, cell-based.
Test [3] is described as follows: cells. The class given is functional, cell-based.
Test [4] has as its target T1, Nuclear receptor subfamily 0 group B member 1 (Homo sapiens, UniProt P51843).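 Note: HEK293T cells transfected with SF-1 and DAX-1 plus StAR promoter luciferase reporter.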
T1 sequence (P51843 whole entry): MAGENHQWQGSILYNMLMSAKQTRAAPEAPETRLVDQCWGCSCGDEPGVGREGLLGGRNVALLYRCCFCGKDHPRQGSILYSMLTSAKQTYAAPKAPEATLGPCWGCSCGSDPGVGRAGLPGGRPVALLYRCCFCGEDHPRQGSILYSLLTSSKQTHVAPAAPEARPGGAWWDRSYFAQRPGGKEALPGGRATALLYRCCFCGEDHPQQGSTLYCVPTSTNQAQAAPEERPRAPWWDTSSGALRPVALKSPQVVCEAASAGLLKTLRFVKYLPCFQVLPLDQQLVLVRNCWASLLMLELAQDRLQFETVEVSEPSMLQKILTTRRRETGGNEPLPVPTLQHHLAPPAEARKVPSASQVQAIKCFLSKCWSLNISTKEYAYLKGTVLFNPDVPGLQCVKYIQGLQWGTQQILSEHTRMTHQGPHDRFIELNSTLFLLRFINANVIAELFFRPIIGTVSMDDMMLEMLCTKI
The class given is functional, cell-based.

Test [5] in a line: microbe, parasite or virus in culture. The class given is functional. As to conditions: Mycobacterium tuberculosis.
The nature of test [6]: THP-1 cell cytotoxicity, dose response, cytotoxicity control for non-replicating M. tuberculosis project (AID 489025). The test is classed as functional.
Test [7] can be described thus: Vero E6 cell cytotoxicity, dose response, cytotoxicity control for non-replicating M. tuberculosis project, secondary assay (AID 492998). The class given is functional, VeroE6. As to conditions: Vero C1008.
A short description of test [8]: cells. The class given is functional.
Test [9] concerns the target DNA (cytosine-5)-methyltransferase 1 (Homo sapiens, UniProt P26358). Put plainly: DNMT1 methyltransferase inhibitors, confirmation, biochemical, fluorescent molecular beacon (AID 602386). The test is classed as functional.
Test [10] deals with T2, DNA repair and recombination protein RAD54-like (Homo sapiens, UniProt Q92698).
T2 sequence (Q92698 whole entry): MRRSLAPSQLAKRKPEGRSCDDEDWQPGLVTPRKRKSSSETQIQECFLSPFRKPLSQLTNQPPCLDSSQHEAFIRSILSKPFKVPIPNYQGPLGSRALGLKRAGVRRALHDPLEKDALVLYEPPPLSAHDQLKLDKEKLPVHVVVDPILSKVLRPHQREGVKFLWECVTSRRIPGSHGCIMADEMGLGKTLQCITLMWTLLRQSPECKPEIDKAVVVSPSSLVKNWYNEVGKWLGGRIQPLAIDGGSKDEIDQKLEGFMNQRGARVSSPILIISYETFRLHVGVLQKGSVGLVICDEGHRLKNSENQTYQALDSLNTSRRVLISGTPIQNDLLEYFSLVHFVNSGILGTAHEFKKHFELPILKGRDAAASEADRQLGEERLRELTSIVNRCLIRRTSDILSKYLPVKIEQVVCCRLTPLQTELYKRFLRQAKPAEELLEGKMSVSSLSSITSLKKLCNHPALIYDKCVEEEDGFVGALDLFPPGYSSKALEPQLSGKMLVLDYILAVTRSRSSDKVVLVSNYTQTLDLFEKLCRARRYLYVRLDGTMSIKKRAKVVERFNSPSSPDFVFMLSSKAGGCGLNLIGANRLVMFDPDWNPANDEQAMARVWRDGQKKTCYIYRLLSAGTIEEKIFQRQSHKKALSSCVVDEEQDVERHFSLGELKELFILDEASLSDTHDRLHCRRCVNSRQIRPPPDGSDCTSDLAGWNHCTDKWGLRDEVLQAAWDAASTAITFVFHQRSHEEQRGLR
Put plainly: inhibitors of human RAD54 branch migration, confirmation, biochemical, fluorescence, cherry-picked samples, dose series (AID 651657). The class given is functional.

Test [11] has as its target SWI/SNF-related matrix-associated actin-dependent regulator of chromatin subfamily A member 2 (Homo sapiens, UniProt P51531). Put plainly: Luminescence-based cell-based high throughput dose response assay to identify activators of the function of SWI/SNF related, matrix associated, actin dependent regulator of chromatin, subfamily a, member 2 (SMARCA2, BRM). The class given is functional.

Test [12] is described as follows: Counterscreen for activators of the function of SWI/SNF related, matrix associated, actin dependent regulator of chromatin, subfamily a, member 2 (SMARCA2, BRM): Luminescence-based cell-based high throughput dose response assay to identify non-selective compounds using the VP16 reporter assay. The class given is functional. For orientation: The purpose of a counterscreen is to sort out artefacts and off-target activity.

For test [13], the target named is T3, Carboxy-terminal domain RNA polymerase II polypeptide A small phosphatase 1 (Homo sapiens, UniProt Q9GZU7).
T3 sequence (Q9GZU7 whole entry): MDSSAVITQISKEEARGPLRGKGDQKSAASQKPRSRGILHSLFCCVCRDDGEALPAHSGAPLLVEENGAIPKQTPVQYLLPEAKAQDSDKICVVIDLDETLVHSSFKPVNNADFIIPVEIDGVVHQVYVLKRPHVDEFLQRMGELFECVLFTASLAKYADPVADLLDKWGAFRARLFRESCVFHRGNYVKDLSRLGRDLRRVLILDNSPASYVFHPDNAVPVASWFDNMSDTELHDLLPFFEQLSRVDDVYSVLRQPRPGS
As to the kind of experiment: inhibitors of CTDSP1, concentration-response testing, biochemical assay, absorbance-based, actives from ultra-high-throughput screening (AID 540297). The test is classed as functional.

Test [14] concerns the target FAD-linked sulfhydryl oxidase ALR (Homo sapiens, UniProt P55789). Put plainly: inhibitors of human ALR sulfhydryl oxidase, dose response, biochemical, H2O2 detection, luminescence, cherry-pick (AID 493248).
The target in the next test is Albumin (Bos taurus, UniProt P02769). Put plainly: Counterscreen for inhibitors of T-cell receptor (TCR)-CD3 interaction: Fluorescence-based biochemical high throughput dose response assay to identify inhibitors of T-cell receptor (TCR)-CD3 interaction using a TAMRA-labeled BSA probe. The class given is functional.
The nature of test [15]: cytotoxicity in HEK-293T cells, dose response, cytotoxicity control for TCR NF-kB inhibitor project, luminescence, T-cell screen hits (AID 489026).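 Note: cells exposed to compound about 14 hours before the viability readout.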 The class given is functional, cell-based.
Test [16] deals with T4, Microphthalmia-associated transcription factor (Homo sapiens, UniProt O75030).
T4 sequence (O75030 whole entry): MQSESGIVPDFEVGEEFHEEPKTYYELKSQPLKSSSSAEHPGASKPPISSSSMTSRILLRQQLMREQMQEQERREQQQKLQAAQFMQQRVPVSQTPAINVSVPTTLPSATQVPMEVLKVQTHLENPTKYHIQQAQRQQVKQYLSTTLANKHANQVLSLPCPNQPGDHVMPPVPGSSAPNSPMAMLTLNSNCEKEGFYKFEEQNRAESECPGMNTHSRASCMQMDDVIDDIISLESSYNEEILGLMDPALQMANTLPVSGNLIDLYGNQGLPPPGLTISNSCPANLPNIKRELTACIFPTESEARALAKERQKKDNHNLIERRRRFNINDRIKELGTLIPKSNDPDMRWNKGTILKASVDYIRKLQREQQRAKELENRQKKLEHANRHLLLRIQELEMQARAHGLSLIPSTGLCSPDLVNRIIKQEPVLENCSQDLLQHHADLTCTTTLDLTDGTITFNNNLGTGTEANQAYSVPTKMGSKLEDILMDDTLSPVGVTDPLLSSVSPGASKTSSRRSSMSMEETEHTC
As to the kind of experiment: TRPM1 promoter luciferase signal decrease, dose response, MITF inhibitor project, cell-based, SK-MEL-5, cherry-picked, set 3 (AID 493073).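 Note: SK-MEL-5 melanoma cells with luciferase driven by the MITF target TRPM1 promoter.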 The test is classed as functional.

For a further test, the target named is Paired box protein Pax-8 (Homo sapiens, UniProt Q06710). Put plainly: inhibitors of PAX8-driven TPO luciferase reporter, dose response, RMG-I cells, cherry-pick (AID 687027).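 Note: luciferase reporter driven by Pax8 target thyroperoxidase promoter measured by SteadyGlo luminescence.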 The test is classed as functional, cell-based.
Test [17] can be described thus: inhibitors of firefly luciferase expression or activity, dose response, H4 neuroglioma cells, luminescence (AID 1990). The class given is functional, cell-based.
For test [18], the target named is T5, DNA repair protein RAD52 homolog (Homo sapiens, UniProt P43351).
T5 sequence (P43351 whole entry): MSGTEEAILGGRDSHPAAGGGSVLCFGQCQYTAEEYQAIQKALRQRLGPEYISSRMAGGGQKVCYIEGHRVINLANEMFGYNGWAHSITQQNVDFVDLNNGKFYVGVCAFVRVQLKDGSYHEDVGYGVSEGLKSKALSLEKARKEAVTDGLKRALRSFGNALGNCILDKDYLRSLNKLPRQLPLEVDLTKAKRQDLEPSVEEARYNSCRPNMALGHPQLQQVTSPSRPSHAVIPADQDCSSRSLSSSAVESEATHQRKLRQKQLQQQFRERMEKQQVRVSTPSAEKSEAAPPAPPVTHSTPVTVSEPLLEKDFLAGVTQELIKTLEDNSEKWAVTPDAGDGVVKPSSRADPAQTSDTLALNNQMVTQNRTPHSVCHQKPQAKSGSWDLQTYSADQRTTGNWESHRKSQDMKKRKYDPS
The class given is functional, biochemical.

Test [19] deals with T6, Aryl hydrocarbon receptor (Homo sapiens, UniProt P35869).
T6 sequence (P35869 whole entry): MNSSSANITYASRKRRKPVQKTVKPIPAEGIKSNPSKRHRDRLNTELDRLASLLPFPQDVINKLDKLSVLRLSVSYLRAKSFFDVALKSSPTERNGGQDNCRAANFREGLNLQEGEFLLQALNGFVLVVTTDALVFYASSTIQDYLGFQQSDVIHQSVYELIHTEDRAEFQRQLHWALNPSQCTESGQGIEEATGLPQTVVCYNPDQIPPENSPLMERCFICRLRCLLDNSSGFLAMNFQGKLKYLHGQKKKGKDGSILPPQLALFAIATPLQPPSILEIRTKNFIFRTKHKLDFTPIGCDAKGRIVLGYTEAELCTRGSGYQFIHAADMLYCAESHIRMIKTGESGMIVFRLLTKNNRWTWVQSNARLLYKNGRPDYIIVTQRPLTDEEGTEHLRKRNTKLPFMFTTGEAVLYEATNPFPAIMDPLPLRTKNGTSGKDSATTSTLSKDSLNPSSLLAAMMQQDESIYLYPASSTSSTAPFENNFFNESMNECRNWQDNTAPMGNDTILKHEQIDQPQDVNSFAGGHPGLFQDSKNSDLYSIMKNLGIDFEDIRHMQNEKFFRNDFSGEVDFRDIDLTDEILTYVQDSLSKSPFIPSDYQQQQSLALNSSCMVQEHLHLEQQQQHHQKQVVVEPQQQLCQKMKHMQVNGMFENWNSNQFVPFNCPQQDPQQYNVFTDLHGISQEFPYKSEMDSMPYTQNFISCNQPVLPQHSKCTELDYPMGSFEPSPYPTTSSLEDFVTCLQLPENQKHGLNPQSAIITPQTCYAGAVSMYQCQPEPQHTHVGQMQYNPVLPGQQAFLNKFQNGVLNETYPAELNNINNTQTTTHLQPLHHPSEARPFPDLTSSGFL
The conditions noted are these: Potency.

Active and inactive are the calls of the source.

Chain of SWI/SNF-related matrix-associated actin-dependent regulator of chromatin subfamily A member 2 (P51531 whole entry): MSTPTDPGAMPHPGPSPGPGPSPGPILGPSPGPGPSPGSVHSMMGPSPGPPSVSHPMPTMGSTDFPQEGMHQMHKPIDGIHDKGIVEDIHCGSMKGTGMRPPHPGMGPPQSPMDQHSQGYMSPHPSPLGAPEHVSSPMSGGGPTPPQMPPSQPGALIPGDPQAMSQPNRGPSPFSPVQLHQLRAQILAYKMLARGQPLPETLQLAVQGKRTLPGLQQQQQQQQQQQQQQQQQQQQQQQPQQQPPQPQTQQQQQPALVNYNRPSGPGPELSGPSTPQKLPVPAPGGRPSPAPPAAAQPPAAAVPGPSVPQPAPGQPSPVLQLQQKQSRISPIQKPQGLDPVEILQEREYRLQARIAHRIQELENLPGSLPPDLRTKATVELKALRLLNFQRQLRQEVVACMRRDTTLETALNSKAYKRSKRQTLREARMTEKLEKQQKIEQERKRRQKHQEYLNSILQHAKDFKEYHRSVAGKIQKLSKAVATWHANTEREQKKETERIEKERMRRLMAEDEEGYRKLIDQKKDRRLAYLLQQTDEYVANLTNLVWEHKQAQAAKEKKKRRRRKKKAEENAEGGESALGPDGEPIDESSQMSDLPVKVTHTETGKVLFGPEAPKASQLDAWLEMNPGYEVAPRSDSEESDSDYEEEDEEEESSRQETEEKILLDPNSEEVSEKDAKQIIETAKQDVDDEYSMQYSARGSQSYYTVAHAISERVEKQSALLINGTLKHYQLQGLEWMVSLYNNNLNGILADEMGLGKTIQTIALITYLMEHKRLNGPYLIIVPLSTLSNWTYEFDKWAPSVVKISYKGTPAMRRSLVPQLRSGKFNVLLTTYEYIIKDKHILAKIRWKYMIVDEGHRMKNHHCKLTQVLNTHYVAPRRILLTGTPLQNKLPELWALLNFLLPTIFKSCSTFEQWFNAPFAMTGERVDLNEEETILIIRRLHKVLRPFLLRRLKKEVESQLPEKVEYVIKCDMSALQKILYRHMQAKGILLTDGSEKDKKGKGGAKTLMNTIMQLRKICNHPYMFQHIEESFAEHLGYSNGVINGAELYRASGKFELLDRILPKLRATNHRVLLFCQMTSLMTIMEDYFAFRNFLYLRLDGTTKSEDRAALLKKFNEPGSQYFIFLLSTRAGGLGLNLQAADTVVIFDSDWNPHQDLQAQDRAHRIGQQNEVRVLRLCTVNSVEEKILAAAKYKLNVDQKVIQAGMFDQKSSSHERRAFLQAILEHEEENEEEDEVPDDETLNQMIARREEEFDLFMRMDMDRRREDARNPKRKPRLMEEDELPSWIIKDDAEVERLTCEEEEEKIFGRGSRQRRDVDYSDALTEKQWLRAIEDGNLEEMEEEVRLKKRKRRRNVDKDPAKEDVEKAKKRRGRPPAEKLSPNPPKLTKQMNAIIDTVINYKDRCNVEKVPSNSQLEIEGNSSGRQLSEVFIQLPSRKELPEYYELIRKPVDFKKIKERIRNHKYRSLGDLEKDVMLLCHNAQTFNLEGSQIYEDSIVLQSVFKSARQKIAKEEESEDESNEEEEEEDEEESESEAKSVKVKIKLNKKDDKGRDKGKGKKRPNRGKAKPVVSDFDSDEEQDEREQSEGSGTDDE
Chain of DNA (cytosine-5)-methyltransferase 1 (P26358 whole entry): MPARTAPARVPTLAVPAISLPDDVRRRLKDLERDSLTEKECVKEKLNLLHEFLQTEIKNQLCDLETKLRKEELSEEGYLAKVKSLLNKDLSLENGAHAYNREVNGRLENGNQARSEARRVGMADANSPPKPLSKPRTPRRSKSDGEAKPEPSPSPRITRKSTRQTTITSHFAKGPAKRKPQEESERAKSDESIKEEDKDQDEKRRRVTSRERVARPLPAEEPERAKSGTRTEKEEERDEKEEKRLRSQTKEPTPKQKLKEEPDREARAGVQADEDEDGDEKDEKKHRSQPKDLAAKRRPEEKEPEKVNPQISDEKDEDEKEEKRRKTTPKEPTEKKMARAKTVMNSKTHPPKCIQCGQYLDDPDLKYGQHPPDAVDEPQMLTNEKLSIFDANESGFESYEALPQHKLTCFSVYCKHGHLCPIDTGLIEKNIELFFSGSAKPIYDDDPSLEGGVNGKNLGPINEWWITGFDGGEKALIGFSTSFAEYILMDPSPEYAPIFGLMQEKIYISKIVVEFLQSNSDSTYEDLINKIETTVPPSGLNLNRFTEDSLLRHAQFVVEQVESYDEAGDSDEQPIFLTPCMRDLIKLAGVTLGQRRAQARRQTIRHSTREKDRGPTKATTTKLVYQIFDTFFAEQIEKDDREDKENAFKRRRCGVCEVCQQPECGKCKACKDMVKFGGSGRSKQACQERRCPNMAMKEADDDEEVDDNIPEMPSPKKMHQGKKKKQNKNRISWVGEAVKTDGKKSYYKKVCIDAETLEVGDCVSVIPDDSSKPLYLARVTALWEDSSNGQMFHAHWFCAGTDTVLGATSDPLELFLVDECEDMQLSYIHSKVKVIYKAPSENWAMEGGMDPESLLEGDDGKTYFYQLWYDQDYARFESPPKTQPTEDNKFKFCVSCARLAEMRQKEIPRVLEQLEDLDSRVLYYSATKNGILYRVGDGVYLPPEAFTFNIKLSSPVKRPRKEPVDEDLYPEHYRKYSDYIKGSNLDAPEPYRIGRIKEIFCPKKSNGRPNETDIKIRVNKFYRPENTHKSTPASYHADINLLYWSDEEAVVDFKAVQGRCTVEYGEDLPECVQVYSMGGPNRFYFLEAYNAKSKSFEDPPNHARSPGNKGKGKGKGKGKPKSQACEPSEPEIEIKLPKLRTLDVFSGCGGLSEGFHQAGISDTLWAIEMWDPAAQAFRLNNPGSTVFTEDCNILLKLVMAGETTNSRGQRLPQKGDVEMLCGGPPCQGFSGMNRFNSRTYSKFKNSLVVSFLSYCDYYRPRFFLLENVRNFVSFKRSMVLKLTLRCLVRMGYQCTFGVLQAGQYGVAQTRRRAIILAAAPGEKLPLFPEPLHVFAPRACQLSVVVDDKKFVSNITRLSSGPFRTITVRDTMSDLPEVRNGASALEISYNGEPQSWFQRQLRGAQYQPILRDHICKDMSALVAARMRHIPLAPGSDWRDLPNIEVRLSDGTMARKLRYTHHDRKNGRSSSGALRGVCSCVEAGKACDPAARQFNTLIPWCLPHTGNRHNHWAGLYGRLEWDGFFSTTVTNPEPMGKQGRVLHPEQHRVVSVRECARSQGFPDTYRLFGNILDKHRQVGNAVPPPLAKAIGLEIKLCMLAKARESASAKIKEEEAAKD
Chain of Paired box protein Pax-8 (Q06710 whole entry): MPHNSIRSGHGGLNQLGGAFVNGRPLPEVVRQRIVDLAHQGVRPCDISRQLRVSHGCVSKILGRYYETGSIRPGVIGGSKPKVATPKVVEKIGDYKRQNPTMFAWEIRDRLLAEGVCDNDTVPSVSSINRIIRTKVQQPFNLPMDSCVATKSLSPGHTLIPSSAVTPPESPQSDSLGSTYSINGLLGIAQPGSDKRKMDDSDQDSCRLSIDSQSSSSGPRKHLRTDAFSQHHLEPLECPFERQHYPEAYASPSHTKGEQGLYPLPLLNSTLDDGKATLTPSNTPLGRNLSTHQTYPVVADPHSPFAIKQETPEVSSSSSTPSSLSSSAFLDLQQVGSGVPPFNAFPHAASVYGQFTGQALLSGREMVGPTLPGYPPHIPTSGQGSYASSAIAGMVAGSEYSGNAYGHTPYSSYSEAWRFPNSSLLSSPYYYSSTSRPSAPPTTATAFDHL
Chain of FAD-linked sulfhydryl oxidase ALR (P55789 whole entry): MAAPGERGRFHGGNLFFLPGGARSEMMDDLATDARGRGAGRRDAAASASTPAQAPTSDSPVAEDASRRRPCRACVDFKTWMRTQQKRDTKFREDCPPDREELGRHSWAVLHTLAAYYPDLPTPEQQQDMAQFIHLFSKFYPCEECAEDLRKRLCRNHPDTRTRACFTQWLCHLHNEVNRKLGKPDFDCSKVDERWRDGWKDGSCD
Chain of Albumin (P02769 whole entry): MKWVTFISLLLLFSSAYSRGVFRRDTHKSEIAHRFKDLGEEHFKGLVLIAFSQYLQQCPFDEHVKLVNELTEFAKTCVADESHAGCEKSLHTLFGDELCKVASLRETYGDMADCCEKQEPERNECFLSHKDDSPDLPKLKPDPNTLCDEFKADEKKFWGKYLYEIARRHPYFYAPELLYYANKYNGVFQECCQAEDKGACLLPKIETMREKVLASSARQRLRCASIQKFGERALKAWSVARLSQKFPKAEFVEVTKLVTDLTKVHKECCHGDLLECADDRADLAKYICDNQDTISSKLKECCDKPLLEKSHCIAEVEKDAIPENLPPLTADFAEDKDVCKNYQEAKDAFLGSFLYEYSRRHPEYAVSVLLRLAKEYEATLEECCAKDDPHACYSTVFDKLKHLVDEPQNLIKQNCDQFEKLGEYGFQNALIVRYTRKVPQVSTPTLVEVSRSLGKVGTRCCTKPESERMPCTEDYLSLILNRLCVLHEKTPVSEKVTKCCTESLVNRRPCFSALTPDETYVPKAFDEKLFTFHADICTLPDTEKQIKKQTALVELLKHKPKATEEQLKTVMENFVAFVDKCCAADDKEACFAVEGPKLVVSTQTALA

A word on the EC50: it is the concentration that produces a half-maximal response. Broadly, the IC50 is the concentration needed to halve the response being measured. With `O=C(/C=C\Nc1cccc(F)c1)c1ccc2c(c1)OCO2`, the EC50 in test [1] is 7.42 µM (active); in test [2], 7.2 µM (active). Further, the IC50 is > 67.5 µM (inactive) in “cells [3]” and > 0.0926 µM (active) in [4].

What is called AC50 is the concentration giving half of the maximal activity seen. As to `CN(C)CCOc1nc(-c2ccccc2)nc2c1oc1ccccc12`, the CC50 was 12.5 µM (active) in test [5], 34 µM (active) in test [6] and > 20 µM (active) in test [7]. The IC50 is 10.7 µM (active) in “cells [8]” and > 99 µM (inactive) in [9]. The AC50 in test [10] is 4.97 µM (active). Moreover, the values for the EC50 in test [11] and in test [12] were > 10.1 µM (inactive) and > 91.2 µM (inactive), respectively.

Turning to `Cc1ccccc1NC(=O)CSc1ccsc1[N+](=O)[O-]`, the IC50 in [13] is 2.3 µM (active); in test [9], 7.7 µM (active).

As for `Cc1cccc(N2C(=O)/C(=C\NNC(=O)c3ccccc3Cl)c3ccccc3C2=O)n1`, in test [14], the AC50 is 9.36 µM (active). Moreover, the IC50 at Albumin was > 94.1 µM (inactive).

As to `COc1ccc(COC(=O)c2cc([N+](=O)[O-])ccc2N2CCOCC2)cc1F`, the IC50 is > 80 µM (inactive) in test [15], > 67.5 µM (inactive) in “cells [3]” and > 0.278 µM (active) in [4]. Moreover, the concentration at half-maximal activity (AC50) is 0.023 µM (active) in [16] and < 0.26 µM (active) at Paired box protein Pax-8.

As for `COCc1cc(O)n2nc(-c3ccc(C)cc3)cc2n1`, the EC50 in test [11] and in test [12] was > 91.2 µM (inactive) in each case.

As to `CCOc1ccc(N(CC(=O)Nc2ccccc2OCC)S(=O)(=O)c2c(C)noc2C)cc1`, the results for the EC50 in [17], in test [1] and in [2] were 2.32 µM (active), 0.495 µM (active) and 0.567 µM (active), respectively. The IC50 (in the test “cells [3]”; in test [4]) was > 67.5 µM (inactive) each time.

As for `CCOc1cccc2sc(N(CCN(C)C)C(=O)c3cc4ccccc4cc3OC)nc12`, in [18], the AC50 was 12.5 µM (active).

`N#Cc1ccccc1` [BENZONITRILE]: in [19], the AC50 was 7.08 µM (inconclusive).

Consider `C=C1c2ccccc2NC(=O)N1c1ccc(OC)cc1`, for which the EC50 in [11] and in [12] was > 91.1 µM (inactive) throughout.

As for `NCCCNC(=S)NCCCN(Cc1ccc(Cl)cc1)c1ccc(Br)cn1`, in [18], the AC50 was 20.2 µM (active).
